≈ marks a conversion by molar mass, not a printed value. Calls of active or inactive are those of the source. The rule behind the calls is not given here.
What was measured:
Staphylococcus aureus [1] = test: Antibiofilm activity against Staphylococcus aureus ATCC 29213 assessed as eradication of preformed biofilm by measuring residual biomass at 2 microg/ml measured after 72 hrs by crystal violet staining based analysis relative to control; assay type: functional; conditions: dose 2 µg/ml
Enterococcus faecalis [2] = test: Antimicrobial activity against Enterococcus faecalis J2 harboring erythromycin-resistance rRNA methylase B and oxazolidinone phenicol transferable resistance gene assessed as inhibition of visible growth of bacteria incubated for 20 hrs by broth microdilution method; assay type: functional
[3] = Acute toxicity in ICR mouse model assessed as change in liver pathology at 25 to 100 mg/kg, IG administered for 7 days by H and E staining based analysis; assay type: organism-based; conditions: in vivo, po, 168 h, dose 25-100 mg/kg, time 7 day
[4] = Cytotoxicity against human Caco-2 cells assessed as cell viability at 1 time of MIC incubated for 48 hrs by CCK8 assay (reference value: 99.54 %); assay type: toxicity, cell-based; conditions: read-out: Activity
[5] = Cytotoxicity against human Caco-2 cells assessed as reduction in cell viability incubated for 48 hrs by CCK8 assay; assay type: toxicity, cell-based
Enterococcus faecium = test: Antimicrobial activity against Enterococcus faecium QF31 harboring erythromycin resistance rRNA methylase B and chloramphenicol-florfenicol resistance methylase assessed as inhibition of visible growth of bacteria incubated for 20 hrs by broth microdilution method; assay type: functional
Staphylococcus aureus [6] = test: Antimicrobial activity against Staphylococcus aureus YZSA-21 harboring erythromycin resistance rRNA methylase C assessed as inhibition of visible growth of bacteria incubated for 20 hrs by broth microdilution method; assay type: functional
Staphylococcus aureus [7] = test: Antibiofilm activity in Staphylococcus aureus ATCC 29213 assessed as reduction in biofilm formation at 0.5 to 2 times of MIC measured after 72 hrs by SEM analysis; assay type: functional, organism-based
[8] = Cytotoxicity against human Caco-2 cells assessed as cell viability at 2 times of MIC incubated for 48 hrs by CCK8 assay (reference value: 99.54 %); assay type: toxicity, cell-based; conditions: read-out: Activity
[9] = Metabolic stability in rat liver microsomes assessed as hepatic extraction ratio at 100 uM preincubated for 5 mins followed by NADPH addition and measured upto 60 mins by LC-MS/MS analysis; assay type: ADME, Microsome; conditions: time < 65 min, read-out: ERH
Cell membrane = test: Disruption of cell membrane integrity in Staphylococcus aureus ATCC 29213 assessed as appearance of rupture surface at 0.5 to 2 times of MIC by scanning electron microscopic analysis; assay type: subcellular
Staphylococcus aureus [10] = test: Antimicrobial activity against Staphylococcus aureus YZSA-15 harboring erythromycin resistance rRNA methylase C and vancomycin resistance locus assessed as inhibition of visible growth of bacteria incubated for 20 hrs by broth microdilution method; assay type: functional
Staphylococcus aureus [11] = test: Bactericidal activity against Staphylococcus aureus ATCC 29213 assessed as bacterial killing at 8 times of MIC measured within 12 hrs by time-kill kinetics assay; assay type: functional, organism-based
[12] = Acute toxicity in ICR mouse model assessed as effect on animal survival at 25 to 100 mg/kg, IG administered for 7 days; assay type: organism-based; conditions: in vivo, po, 168 h, dose 25-100 mg/kg, time 7 day
Staphylococcus aureus [13] = test: Bactericidal activity against Staphylococcus aureus ATCC 29213 assessed as decrease in bacterial number measured within 12 hrs by time-kill kinetics assay; assay type: functional, organism-based
Enterococcus faecalis [14] = test: Antimicrobial activity against Enterococcus faecalis ES01 harboring erythromycin-resistance rRNA methylase B and vanB-type vancomycin-resistance locus assessed as inhibition of visible growth of bacteria incubated for 20 hrs by broth microdilution method; assay type: functional
Staphylococcus aureus [15] = test: (§1) Antibacterial activity against methicillin-resistant Staphylococcus aureus YZSA-24 infected in cyclophosphamide-induced neutrophil depleted female ICR mouse model of skin infection assessed as log reduction in bacterial load at 1 %, TOP preadministered with cyclophosphamide for 5 days followed by bacterial administration and measured after 25 hrs of compound administration relative to ampicillin group; assay type: functional
[16] = Metabolic stability in human liver microsomes assessed as half-life at 100 uM preincubated for 5 mins followed by NADPH addition and measured upto 60 mins by LC-MS/MS analysis; assay type: ADME, Microsome; conditions: time < 65 min
Klebsiella pneumoniae = test: Antimicrobial activity against Klebsiella pneumoniae 9-1 assessed as inhibition of visible growth of bacteria incubated for 20 hrs by broth microdilution method; assay type: functional
[17] = Metabolic stability in human liver microsomes assessed as intrinsic clearance at 100 uM preincubated for 5 mins followed by NADPH addition and measured upto 60 mins by LC-MS/MS analysis; assay type: ADME, Microsome; conditions: time < 65 min, read-out: CLH
Pseudomonas aeruginosa = test: Antimicrobial activity against Pseudomonas aeruginosa PA14 assessed as inhibition of visible growth of bacteria incubated for 20 hrs by broth microdilution method; assay type: functional
[18] = Cytotoxicity against human HEp-2 cells assessed as cell viability at 1 time of MIC incubated for 48 hrs by CCK8 assay (reference value: 100 %); assay type: toxicity, cell-based; conditions: read-out: Activity
Streptococcus suis = test: microbe, parasite or virus in culture; assay type: functional; conditions: SH0918, time 20 hrs
Description: Antimicrobial activity against Streptococcus suis SH0918 harboring erythromycin-resistance rRNA methylase B, tetracycline efflux protein O and oxazolidinone phenicol transferable resistance gene assessed as inhibition of visible growth of bacteria incubated for 20 hrs by broth microdilution method

[19] = Cytotoxicity against human HEp-2 cells assessed as cell viability at 4 times of MIC incubated for 48 hrs by CCK8 assay (reference value: 100 %); assay type: toxicity, cell-based; conditions: read-out: Activity
Streptococcus pyogenes = test: Antimicrobial activity against Streptococcus pyogenes DL02 harboring erythromycin-resistance rRNA methylase B assessed as inhibition of visible growth of bacteria incubated for 20 hrs by broth microdilution method; assay type: functional
Acinetobacter baumannii [20] = test: Antimicrobial activity against Acinetobacter baumannii 7979 assessed as inhibition of visible growth of bacteria incubated for 20 hrs by broth microdilution method; assay type: functional
Enterococcus faecalis [21] = test: Antimicrobial activity against Enterococcus faecalis JH2-2 assessed as inhibition of visible growth of bacteria incubated for 20 hrs by broth microdilution method; assay type: functional
[22] = Cytotoxicity against human HEp-2 cells assessed as cell viability at 2 times of MIC incubated for 48 hrs by CCK8 assay (reference value: 100 %); assay type: toxicity, cell-based; conditions: read-out: Activity
Staphylococcus aureus [23] = test: Disruption of preformed biofilm in Staphylococcus aureus ATCC 29213 at 1 microg/ml measured after 72 hrs by crystal violet staining based analysis relative to control; assay type: functional; conditions: dose 1 µg/ml
Staphylococcus aureus [24] = test: as §1, with “2.5” for “1”, “vehicle” for “ampicillin”; assay type: functional
Acinetobacter baumannii [25] = test: Antimicrobial activity against Acinetobacter baumannii AB11 assessed as inhibition of visible growth of bacteria incubated for 20 hrs by broth microdilution method; assay type: functional
[26] = Metabolic stability in rat liver microsomes assessed as half-life at 100 uM preincubated for 5 mins followed by NADPH addition and measured upto 60 mins by LC-MS/MS analysis; assay type: ADME, Microsome; conditions: time < 65 min
[27] = Hemolytic activity in Kunming mouse erythrocytes assessed as hemolysis at 16 times of MIC measured after 1 hrs by absorbance based assay relative to control; assay type: toxicity, cell-based, Erythrocyte; conditions: read-out: Activity
Staphylococcus aureus [28] = test: Antibiofilm activity against Staphylococcus aureus ATCC 29213 assessed as eradication of preformed biofilm measured after 72 hrs by crystal violet staining based analysis; assay type: functional, organism-based
Staphylococcus aureus [29] = test: Antimicrobial activity against Staphylococcus aureus YZSA-24 harboring erythromycin resistance rRNA methylase C and methicillin resistance gene resistance locus assessed as inhibition of visible growth of bacteria incubated for 20 hrs by broth microdilution method; assay type: functional
Staphylococcus aureus [30] = test: Disruption of preformed biofilm in Staphylococcus aureus ATCC 29213 assessed as increase in red fluorescence at 0.5 to 2 times of MIC measured after 72 hrs by SYTO-9/PI staining based CLSM imaging analysis; assay type: functional, organism-based

CC1C/C(=C\c2ccc(-c3ccc(Cl)c(C(F)(F)F)c3)s2)c2nc3ccccc3c(C(=O)O)c2C1 (racemic)
Activity (Staphylococcus aureus [1]): 31.4%
MIC (Enterococcus faecalis [2]): 2 µg/mL (≈ 3.89 µM)
Activity [3]: Non-toxic
viability at 48 h, 1 time of MIC [4]: 96.6%
CC50 at 48 h [5]: 21.9 µg/mL (≈ 42.7 µM)
MIC (Enterococcus faecium): 2 µg/mL (≈ 3.89 µM)
MIC (Staphylococcus aureus [6]): 1 µg/mL (≈ 1.95 µM)
Activity (Staphylococcus aureus [7]): Active; Some Sections Appeared To Be Damaged And Broken
viability at 48 h, 2 times of MIC [8]: 96.6%
hepatic extraction ratio at 1 h, 100 µM [9]: < 0.21
Activity (Cell membrane): Active
MIC (Staphylococcus aureus [10]): 1 µg/mL (≈ 1.95 µM)
Activity (Staphylococcus aureus [11]): Active
Activity [12]: Non-toxic
Activity (Staphylococcus aureus [13]): Dose-dependent-effect
MIC (Enterococcus faecalis [14]): 2 µg/mL (≈ 3.89 µM)
Activity (Staphylococcus aureus [15]): 1.21 log10CFU/ml
half-life at 100 µM [16]: > 3.08 h
MIC (Klebsiella pneumoniae): > 128 µg/mL
microsomal CLint at 100 µM [17]: < 7.5 µL/min/mg
MIC (Pseudomonas aeruginosa): > 128 µg/mL
viability at 48 h, 1 time of MIC [18]: 96.9%
MIC (Streptococcus suis): 16 µg/mL (≈ 31.1 µM)
viability at 48 h, 4 times of MIC [19]: 91.4%
MIC (Streptococcus pyogenes): 16 µg/mL (≈ 31.1 µM)
MIC (Acinetobacter baumannii [20]): > 128 µg/mL
MIC (Enterococcus faecalis [21]): 1 µg/mL (≈ 1.95 µM)
viability at 48 h, 2 times of MIC [22]: 93.7%
Activity (Staphylococcus aureus [23]): ~50%
Activity (Staphylococcus aureus [24]): 2.36 log10CFU/ml
MIC (Acinetobacter baumannii [25]): > 128 µg/mL
half-life at 100 µM [26]: > 3.08 h
hemolysis at 1 h, 16 times of MIC [27]: 74%
Activity (Staphylococcus aureus [28]): Dose-dependent-effect
MIC (Staphylococcus aureus [29]): 1 µg/mL (≈ 1.95 µM)
Activity (Staphylococcus aureus [30]): Active

— ChEMBL document CHEMBL6078677, “Discovery and optimization of tetrahydroacridine derivatives as a novel class of antibiotics against multidrug-resistant Gram-positive pathogens by targeting type I signal peptidase and disrupting bacterial membrane” (Eur J Med Chem, 2025)
